Seven compounds from patent US5399570A, “Aspartic acid derivatives, and their use for inhibiting platelete aggregation” (Cassella Aktiengesellschaft, priority 1992, dated 1995) can be followed below.

Like-named read-outs stand apart in the source and are kept apart here.

The subject of assay [1] is filtered, plasma-free human platelets. The assay can be described thus: inhibition of aggregation of filtered human platelets after ADP or thrombin stimulation. It is filed as cell-based. Particulars: Platelet. As to the method: (§1) The compounds of the formula I are in particular tested for their inhibiting action in blood platelet aggregation and the adhesion of fibrinogen to blood platelets. The measurement of aggregation and the binding of ^125 I-fibrinogen is carried out on filtered, plasma-free human platelets. Platelet activation is effected by means of ADP or thrombin.
As a functional test, the inhibition of aggregation of filtered human platelets is measured after ADP or thrombin stimulation by the compounds according to the invention. The IC50 value of inhibition is given.

Assay [2] deals with T1, glycoprotein IIb/IIIa localised on blood platelets (fibrinogen receptor) (Homo sapiens, UniProt P05106+P08514).
T1 construct: carried out on filtered, plasma-free human platelets; endogenous in cells; host or cells: filtered, plasma-free human platelets, stimulated with ADP (10 μM)
T1 sequence (P08514 32-887 limits assumed): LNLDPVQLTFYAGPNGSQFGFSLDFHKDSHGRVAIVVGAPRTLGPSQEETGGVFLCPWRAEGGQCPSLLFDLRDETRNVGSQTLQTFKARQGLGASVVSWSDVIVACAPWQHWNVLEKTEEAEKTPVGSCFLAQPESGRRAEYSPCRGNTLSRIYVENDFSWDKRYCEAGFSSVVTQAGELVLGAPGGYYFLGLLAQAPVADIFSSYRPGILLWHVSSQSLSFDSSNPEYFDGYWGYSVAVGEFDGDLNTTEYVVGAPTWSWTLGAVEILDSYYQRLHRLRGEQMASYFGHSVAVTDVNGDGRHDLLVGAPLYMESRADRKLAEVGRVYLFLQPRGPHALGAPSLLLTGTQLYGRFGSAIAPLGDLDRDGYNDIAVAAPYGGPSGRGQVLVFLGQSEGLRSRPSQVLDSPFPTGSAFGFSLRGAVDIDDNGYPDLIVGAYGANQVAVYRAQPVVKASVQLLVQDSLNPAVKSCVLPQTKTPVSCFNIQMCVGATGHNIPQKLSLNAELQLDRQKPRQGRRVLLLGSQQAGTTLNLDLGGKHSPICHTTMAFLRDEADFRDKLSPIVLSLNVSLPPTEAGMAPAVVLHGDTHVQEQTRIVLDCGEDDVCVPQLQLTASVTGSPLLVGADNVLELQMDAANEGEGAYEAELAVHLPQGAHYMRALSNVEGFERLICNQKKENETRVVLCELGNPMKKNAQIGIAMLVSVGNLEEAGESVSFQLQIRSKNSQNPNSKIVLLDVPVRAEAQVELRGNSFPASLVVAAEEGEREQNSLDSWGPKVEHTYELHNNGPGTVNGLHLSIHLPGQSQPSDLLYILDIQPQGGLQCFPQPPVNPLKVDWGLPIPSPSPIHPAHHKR
T1 sequence (P05106 27-788): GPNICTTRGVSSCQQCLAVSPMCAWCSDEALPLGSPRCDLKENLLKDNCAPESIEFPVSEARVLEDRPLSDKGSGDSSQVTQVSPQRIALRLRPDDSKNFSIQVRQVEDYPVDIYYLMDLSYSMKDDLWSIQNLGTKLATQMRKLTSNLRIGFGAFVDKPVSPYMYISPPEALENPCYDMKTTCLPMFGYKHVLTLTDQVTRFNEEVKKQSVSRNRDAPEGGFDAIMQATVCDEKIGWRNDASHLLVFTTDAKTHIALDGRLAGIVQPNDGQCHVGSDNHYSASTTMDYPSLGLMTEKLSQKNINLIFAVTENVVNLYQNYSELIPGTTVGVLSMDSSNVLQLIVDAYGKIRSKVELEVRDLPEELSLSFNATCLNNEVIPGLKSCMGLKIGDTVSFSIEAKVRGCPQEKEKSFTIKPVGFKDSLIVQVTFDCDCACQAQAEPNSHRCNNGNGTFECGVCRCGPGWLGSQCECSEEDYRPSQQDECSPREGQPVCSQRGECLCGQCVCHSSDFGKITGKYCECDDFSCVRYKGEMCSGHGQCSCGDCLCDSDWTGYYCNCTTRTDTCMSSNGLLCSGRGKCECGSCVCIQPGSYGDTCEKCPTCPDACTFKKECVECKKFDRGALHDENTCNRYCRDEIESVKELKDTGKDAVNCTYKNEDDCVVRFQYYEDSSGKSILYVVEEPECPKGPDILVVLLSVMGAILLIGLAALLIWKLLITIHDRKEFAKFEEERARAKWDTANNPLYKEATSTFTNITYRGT
As to the kind of experiment: inhibition of binding of ^125 I-fibrinogen to human platelets after stimulation with ADP. Particulars: after stimulation with ADP (10 μM).
Text: Integrins are cell membrane glycoproteins and mediate cell adhesion by interaction with a large number of extracelluar proteins, such as fibronectin, laminin, fibrinogen, collagen, vitronectin, and yon Willebrand factor or with other cell membrane proteins, such as, for example, ICAM-1. An important receptor of the integrin family is glycoprotein IIb/IIIa localised on blood platelets (fibrinogen receptor)--a key protein in platelet-platelet interaction and thrombus formation. A central fragment in the receptor recognition sequence of these proteins is the tripeptide Arg--Gly--Asp (E. Ruoslahti and M. D. Pierschbacher, Science 238 (1987) 491-497; D. R. Phillips, I. F. Charo, L. V. Parise and L. A. Fitzgerald, Blood 71 (1988) 831-843).
as §1
The Ki value of the inhibition of binding of ^125 I-fibrinogen after stimulation with ADP (10 μm) is given.
Reference: J. S. Bennett and G. Vilaire, J. Clin. Invest. 64, (1979), 1393-1401.

Where [3] appears, read: ADP stimulation, read-out: Inhibition of platelet aggregation ADP, IC50 value of inhibition.
Setting [4] is: thrombin stimulation, read-out: Inhibition of platelet aggregation Thrombin, IC50 value of inhibition.

For orientation: IC50 means the concentration at which inhibition is half-maximal. As usually defined, the Ki is a measure of affinity in units of concentration, obtained from inhibition or displacement. A lower Ki goes with higher affinity.

Take `CC(C)[C@H](NC(=O)[C@H](CC(=O)O)NC(=O)c1ccc(CC2CCN(C(=N)N)CC2)cc1)C(=O)O` [Example 1, p-(4-(N-Amidinopiperidinyl)methyl)benzoyl-L-aspartyl-L-valine]: the IC50 in assay [1] (setting [3]) turned out to be 8 µM; in assay [1] (setting [4]), 2 µM.
Taken in the same sequence, the figures for `N=C(N)N1CCC(Cc2ccc(C(=O)N[C@@H](CC(=O)O)C(=O)NC3CCCCC3)cc2)CC1` [Example 2, p-(4-(N-Amidinopiperidinyl)methyl)benzoyl-L-aspartylcyclohexylamide] were 15 µM and 10 µM.
Taken in the same sequence, the figures for `N=C(N)N1CCC(Cc2ccc(C(=O)N[C@@H](CC(=O)O)C(=O)NCCC(c3ccccc3)c3ccccc3)cc2)CC1` [Example 3] were 15 µM and 5 µM.
For `CC(C)NC(=O)[C@H](CC(=O)O)NC(=O)c1ccc(CC2CCN(C(=N)N)CC2)cc1` [Example 4], the figures for the IC50 in assay [1] (setting [3]) and in assay [1] (setting [4]) were 20 µM and 15 µM, respectively. This compound displayed a Ki in assay [2] of 10 µM.
The like results for `CN(CC(=O)N[C@@H](CC(=O)O)C(=O)NCCC(c1ccccc1)c1ccccc1)C(=O)c1ccc(CNC(=N)N)cc1` [Example 9, p-Guanidinomethylbenzoylsarcosyl-L-aspartyl-3,3-diphenylpropylamide] were, in that order, 2 µM, 2 µM and 1.8 µM.
With `CN(CC(=O)N[C@@H](CC(=O)O)C(=O)NC(c1ccccc1)c1ccccc1)C(=O)[C@H]1CC[C@H](CNC(=N)N)CC1` [Example 12, trans-4 -Guanidinomethylcyclohexanecarboxylsarcosyl-L-aspartylbenzhydrylamide], the IC50 was found to be 8 µM in assay [1] (setting [3]) and 4 µM in assay [1] (setting [4]). This compound also gave a Ki in assay [2] of 3.1 µM.
The like results for `CC(C)[C@H](NC(=O)[C@H](CC(=O)O)NC(=O)c1ccc(OC2CCN(C(=N)N)CC2)cc1)C(=O)O` [Example 14, p-(4-N-Amidinopiperidinyloxy)benzoyl-L-aspartyl-L-valine] were, in that order, 4.5 µM, 1.5 µM and 0.8 µM.
